In paper PMC5209314, “Purification and characterization of a novel glutamate dehydrogenase from Geotrichum candidum with higher alcohol and amino acid activity” (AMB Express, 2017):

Assays:
Format in all cases: biochemical
[1] = biological target: T1, glutamate dehydrogenase (GDH) from Geotrichum candidum S12 (Geotrichum candidum, UniProt A0A023RBK5); assay: activity towards hexanol, GC; conditions: read-out: Relative activity (%)^a
T1 construct: identified by PMF similarity to Yaliof17820p (Yarrowia homologue)
Text: activity towards hexanol, GC on glutamate dehydrogenase (GDH) from Geotrichum candidum S12

[2] = biological target: T1, glutamate dehydrogenase (GDH) from Geotrichum candidum S12; assay: residual activity towards hexanol, GC; conditions: read-out: Relative activity (%)^a
Text: residual activity towards hexanol, GC on glutamate dehydrogenase (GDH) from Geotrichum candidum S12

[3] = biological target: T1, glutamate dehydrogenase (GDH) from Geotrichum candidum S12; assay: activity towards hexanol, GC; conditions: 0.3 mmol/L NAD+, 9.8 mmol/L hexanol, pH 4.0, 30 °C

T1 sequence (A0A023RBK5 1-452): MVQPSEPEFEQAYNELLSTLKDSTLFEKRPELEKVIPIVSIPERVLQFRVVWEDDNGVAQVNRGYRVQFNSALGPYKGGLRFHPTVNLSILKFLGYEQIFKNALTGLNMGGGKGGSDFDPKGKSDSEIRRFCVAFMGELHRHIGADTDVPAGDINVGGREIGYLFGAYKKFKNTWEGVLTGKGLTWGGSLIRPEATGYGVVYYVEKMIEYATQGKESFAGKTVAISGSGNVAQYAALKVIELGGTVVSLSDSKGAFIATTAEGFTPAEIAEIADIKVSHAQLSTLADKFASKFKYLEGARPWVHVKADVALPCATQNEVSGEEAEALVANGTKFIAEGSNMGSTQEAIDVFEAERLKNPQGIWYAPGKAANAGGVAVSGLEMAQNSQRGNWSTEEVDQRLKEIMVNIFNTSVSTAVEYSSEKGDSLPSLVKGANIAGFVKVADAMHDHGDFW

SMILES: Nc1ncnc2c1ncn2[C@@H]1O[C@H](COP(=O)(O)OP(=O)(O)O)[C@@H](O)[C@H]1O [ADP]
- activity at 1000 µM [1]: 138 ± 3.72%

SMILES: Nc1ncnc2c1ncn2[C@@H]1O[C@H](COP(=O)(O)OP(=O)(O)OP(=O)(O)O)[C@@H](O)[C@H]1O [ATP]
- activity at 1000 µM [2]: 14.3 ± 0.84%

SMILES: NC(=O)c1ccc[n+]([C@@H]2O[C@H](COP(=O)(O)OP(=O)(O)OC[C@H]3O[C@@H](n4cnc5c(N)ncnc54)[C@H](O)[C@@H]3O)[C@@H](O)[C@H]2O)c1 [NAD^+]
- activity towards hexanol, GC [3]: the enzyme could use NADP^+ and NAD^+ as a hydrogen acceptor of hexanol
